Measured values taken from patent US20110077230A1, “COPPER ORGANOCOMPLEXES, USE THEREOF AS ANTITUMOR MEANS AND FOR PROTECTING HEALTHY TISSUE FROM IONIZING RADIATION” (CHARITE - UNIVERSITATSMEDIZIN BERLIN, priority 2008, published 2011).

Tests used:
EAC cells = assay: Cytosolic calcium (chlortetracycline fluorescence) in EAC cells; type: cell-based, mice; settings: depending on the dose
Experimental: The Ehrlich ascites carcinoma (EAC) was obtained from white male mice of the strain MNR1 and the thymocytes from the thymus of rats of the Wistar line. Vitality of the cells was tested by vital staining using trypan blue and experiments and determined to be no less than 95% in all experiments. The NADH state in the EAC cells was assessed with reference to their fluorescence intensity. Measurement of the intracellular calcium concentration was performed according to the standard methodology of fluorescence using chlortetracycline. The membrane potential was measured using the fluorescent dye No. 1104. NADH is a source of electrons in the oxidative phosphorylation process. […] These effects are directed to inhibiting the NAD-dependent dehydrogenase. As a result, the respiratory chain in the tumor cells is inhibited.
The concentration of intracellular calcium is a trigger for a number of intracellular processes (FIG. 17c, 17d).

[1] = Solubility and stability of the complexes
[2] = tested on: primary lymphoblasts from ALL patients; assay: Ex vivo induction of apoptosis in primary lymphoblasts; type: cell-based, human; settings: concentration in LC50 range of NALM-6, 60 hours, cells resistant to daunorubicin and doxorubicin
Experimental: Thereafter, the cells were incubated for 60 hours at 37° C. and 5% CO2, subsequently stained with propidium iodide and quantified using flow cytometry in an FACS.

Question: Which “concentration of cytosolic calcium” value (EAC cells) does the source give for “Copper-sarcolysine hydrochloride complex [complex A]” here?
Answer: Its value is “increase”.

Question: And the “solubility in DMSO” value ([1]; dimethyl sulfoxide (DMSO))?
Answer: Its value is “dissolves”.

Question: And the “solubility in organic solvents” value ([1]; most / many organic solvents)?
Answer: The value was “insoluble”.

Question: What about the “stability at room temperature” value ([1]; room temperature, even when exposed to oxygen) of the same substance?
Answer: The value was “stable”.

Question: What about the solubility in water ([1]; water) of the same substance?
Answer: Its solubility in water is “insoluble”.

Question: What about the “induction of apoptosis in lymphoblasts” value [2] of the same substance?
Answer: Its value is “about 26%”.
